By IC50 is commonly meant the concentration at which inhibition is half-maximal.

The assay deals with RNA-directed RNA polymerase (Hepacivirus hominis, UniProt O39930). The experiment in a line: Inhibition HCV NS5B-mediated RNA synthesis. Format: functional.
Chain of RNA-directed RNA polymerase (O39930 whole entry): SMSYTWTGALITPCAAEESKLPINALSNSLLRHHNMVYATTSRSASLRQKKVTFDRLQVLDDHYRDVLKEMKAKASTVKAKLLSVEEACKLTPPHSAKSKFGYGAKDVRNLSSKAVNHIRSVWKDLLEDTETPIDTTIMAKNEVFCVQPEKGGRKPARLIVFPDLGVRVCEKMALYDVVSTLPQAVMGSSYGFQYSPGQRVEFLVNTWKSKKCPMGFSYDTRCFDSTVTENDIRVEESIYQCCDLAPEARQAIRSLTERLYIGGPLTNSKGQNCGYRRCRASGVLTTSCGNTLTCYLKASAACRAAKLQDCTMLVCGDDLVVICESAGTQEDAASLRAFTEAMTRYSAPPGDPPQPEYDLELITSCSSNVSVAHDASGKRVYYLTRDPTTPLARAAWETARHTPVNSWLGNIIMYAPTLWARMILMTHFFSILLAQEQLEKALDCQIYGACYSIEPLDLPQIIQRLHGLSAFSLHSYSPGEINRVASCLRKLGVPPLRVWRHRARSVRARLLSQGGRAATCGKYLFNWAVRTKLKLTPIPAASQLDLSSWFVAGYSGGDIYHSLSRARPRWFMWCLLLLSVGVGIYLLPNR
With `C[C@]1(O)[C@@H](CO)O[C@@H](n2cnc3c(N)ncnc32)[C@@H]1O`, the IC50 was more than 50 µM.
The result for `C[C@@]1(O)[C@H](O)[C@@H](CO)O[C@H]1n1cnc2c(N)nc(N)nc21` reads 2.6 µM; that for `C[C@@]1(O)[C@H](O)[C@@H](CO)O[C@H]1n1cnc2cnc(N)nc21`, 46 µM; that for `CO[C@]1(C)[C@H](O)[C@@H](CO)O[C@H]1n1cnc2c(N)ncnc21`, more than 50 µM.
As for `CO[C@@H]1[C@H](O)[C@@H](CO)O[C@H]1n1cnc2c(=O)[nH]c(N)nc21`, the figure is 1.6 µM.
As for `CC[C@@]1(O)[C@H](O)[C@@H](CO)O[C@H]1n1cnc2c(N)ncnc21`, the figure is more than 50 µM; as for `Nc1nc2c(ncn2[C@@H]2O[C@H](CO)[C@@H](F)[C@H]2O)c(=O)[nH]1`, 1.8 µM; as for `C[C@@]1(O)[C@@H](CO)O[C@@H](n2cnc3c(N)ncnc32)[C@@H]1O`, more than 50 µM.
On to `Nc1ncnc2c1ncn2[C@@H]1O[C@H](CO)[C@@H](F)[C@H]1O`, for which the IC50 was 28 µM.
The result for `CO[C@@H]1[C@H](O)[C@@H](CO)O[C@H]1n1cnc2c(N)ncnc21` reads 47 µM.
As for `Nc1nc2c(ncn2[C@@H]2O[C@H](CO)C[C@H]2O)c(=O)[nH]1`, the figure is 0.6 µM; as for `C[C@@]1(O)[C@H](O)[C@@H](CO)O[C@H]1n1cnc2c(N)ncnc21`, 1.9 µM.
With `C[C@]1(O)[C@H](O)[C@@H](CO)O[C@H]1n1cnc2c(N)ncnc21`, the IC50 is more than 50 µM.
As for `C[C@@]1(O)[C@H](O)[C@@H](CO)O[C@H]1n1cnc2c(=O)[nH]cnc21`, the figure is 4 µM; as for `Nc1nc2c(ncn2[C@@H]2O[C@H](CO)C(O)[C@H]2O)c(=O)[nH]1` (single isomer, unassigned), 20 µM.
The result for `C[C@@]1(O)[C@H](O)[C@@H](CO)O[C@H]1n1cnc2c(=O)[nH]c(N)nc21` [2'-B-METHYL-GUANOSINE] reads 0.13 µM; that for `Nc1ncnc2c1ncn2[C@@H]1O[C@H](CO)[C@@H](O)[C@H]1F` [2'-BETA-FLUORO-2',3'-DEOXYADENOSINE], more than 50 µM.
As for `Nc1ncnc2c1ncn2[C@@H]1O[C@H](CO)C[C@H]1O` [CORDYCEPIN], the figure is 22 µM.
Regarding `Nc1ncnc2c1ncn2[C@@H]1O[C@H](CO)[C@@H](O)[C@@H]1O` [VIDARABINE], the IC50 was 50 µM.

These data come from ChEMBL document CHEMBL1149159, “Structure-activity relationship of purine ribonucleosides for inhibition of hepatitis C virus RNA-dependent RNA polymerase” (J Med Chem, 2004).
